The RepoRT retention time repository

Assay: HILIC, HILICON iHILIC-(P) Classic, HILIC, PEEK, 100 × 2.1 mm, 5 µm, 40 °C, 0.15 mL/min, estimated dead time 1.5 min; A: water + 20 mM ammonium carbonate + 5 µM medronic acid; B: 10% water + 90% acetonitrile + 2 mM ammonium carbonate + 0.5 µM medronic acid; gradient (min/%B) 0/95 18/55 19/20 22/20 22.5/95 24/95 26/95
Conditions: stereoisomer not certain

SMILES	LC retention time [min]
NC(=O)C1=CN(C2OC(COP(=O)(O)OP(=O)(O)OCC3OC(n4cnc5c(N)ncnc54)C(OP(=O)(O)O)C3O)C(O)C2O)C=CC1 (centres undefined) [NADPH]	16.4
NC(CCC(=O)O)C(=O)O (centres undefined) [Glutamic acid]	9.88
O=P(O)(O)OCC1OC(O)C(O)C1O (centres undefined) [Pentose-phosphate]	11.5
CC(=O)SCCNC(=O)CCNC(=O)C(O)C(C)(C)COP(=O)(O)OP(=O)(O)OCC1OC(n2cnc3c(N)ncnc32)C(O)C1OP(=O)(O)O (centres undefined) [Acetyl-CoA]	10
NC(N)=NCCCC(N)C(=O)O (centres undefined) [Arginine]	18.9
NC(CCC(=O)NC(CSSCC(NC(=O)CCC(N)C(=O)O)C(=O)NCC(=O)O)C(=O)NCC(=O)O)C(=O)O (centres undefined) [GSSG]	15.1
O=P(O)(O)OCC1OC(O)(COP(=O)(O)O)C(O)C1O (centres undefined) [Fructose-1,6-bisphosphate]	16.3
Nc1ncnc2c1ncn2C1OC(COP(=O)(O)OP(=O)(O)O)C(O)C1O (centres undefined) [ADP]	12
CC(C)(COP(=O)(O)OP(=O)(O)OCC1OC(n2cnc3c(N)ncnc32)C(O)C1OP(=O)(O)O)C(O)C(=O)NCCC(=O)NCCS (centres undefined) [CoenzymeA]	11.6
O=C(O)CC(O)C(=O)O (centres undefined) [Malic Acid]	11.9
NC(=O)CC(N)C(=O)O (centres undefined) [Asparagine]	10.4
NC(=O)c1ccc[n+](C2OC(COP(=O)(O)OP(=O)(O)OCC3OC(n4cnc5c(N)ncnc54)C(OP(=O)(O)O)C3O)C(O)C2O)c1 (centres undefined) [NADP]	14.5
O=C(O)C=CC(=O)O [Fumaric Acid]	12.7
NC(CCC(=O)NC(CS)C(=O)NCC(=O)O)C(=O)O (centres undefined) [GSH]	9.58
O=P(O)(O)OC1OC(CO)C(O)C(O)C1O (centres undefined) [Glucose-1-phosphate]	12.3
NC(=O)CCC(N)C(=O)O (centres undefined) [Glutamine]	10.2
O=C(O)CC(O)(CC(=O)O)C(=O)O [Citric acid]	15.3

SMILES	LC retention time [min]
NCCCCC(N)C(=O)O (centres undefined) [Lysine]	18.7
Nc1ncnc2c1ncn2C1OC(COP(=O)(O)O)C(O)C1O (centres undefined) [AMP]	10.4
C=C(OP(=O)(O)O)C(=O)O [PEP]	14.6
O=C(O)CCC(=O)C(=O)O [2-Oxoglutaric acid]	13
O=C(O)CCC(=O)O [Succinic Acid]	11.2
Nc1ncnc2c1ncn2C1OC(COP(=O)(O)OP(=O)(O)OP(=O)(O)O)C(O)C1O (centres undefined) [ATP]	14.6
NC(CC(=O)O)C(=O)O (centres undefined) [Aspartic Acid]	10.3
O=P(O)(O)OCC1OC(O)C(O)C(O)C1O (centres undefined) [Glucose-6-phosphate]	13.7
NC(=O)C1=CN(C2OC(COP(=O)(O)OP(=O)(O)OCC3OC(n4cnc5c(N)ncnc54)C(O)C3O)C(O)C2O)C=CC1 (centres undefined) [NADH]	9.88
O=C(O)CC(C(=O)O)C(O)C(=O)O (centres undefined) [Isocitric acid]	15.9
O=P(O)(O)OCC(O)CO (centres undefined) [Glycerol-3-phosphate]	11.1
CC(O)C(=O)O (centres undefined) [Lactic Acid]	2.68
Nc1ncnc2c1ncn2C1OC(CO)C(O)C1O (centres undefined) [Adenosine]	3.83
O=C(CO)C(O)C(O)C(O)COP(=O)(O)O (centres undefined) [Fructose 6-phosphate]	12.3
O=C(CO)COP(=O)(O)O [Triose phosphate]	11.4
CC(=O)NC1C(OP(=O)(O)OP(=O)(O)OCC2OC(n3ccc(=O)[nH]c3=O)C(O)C2O)OC(CO)C(O)C1O (centres undefined) [UDP-GlcNAc]	12
NC(=O)c1ccc[n+](C2OC(COP(=O)(O)OP(=O)(O)OCC3OC(n4cnc5c(N)ncnc54)C(O)C3O)C(O)C2O)c1 (centres undefined) [NAD]	10.3
